What was measured:
[1] = target: Serine/threonine-protein kinase B-raf (Homo sapiens) (UniProt P15056); experiment: Inhibition of recombinant full length human B-Raf (416 to end residues) assessed as residual activity at 1 uM using myelin basic protein substrate incubated for 40 mins in presence of [gamma-33ATP] by scintillation counting based radiometry assay relative to control
[2] = target: Bone morphogenetic protein receptor type-1B (Homo sapiens) (UniProt O00238); experiment: Inhibition of human ALK6 (148 to end residues) assessed as residual activity at 1 uM using casein as substrate incubated for 40 mins in presence of [gamma-33ATP] by scintillation counting based radiometry assay relative to control
[3] = target: Fibroblast growth factor receptor 1 (Homo sapiens) (UniProt P11362); experiment: Inhibition of recombinant human FGFR1 (456 to 765 residues) assessed as residual activity at 1 uM using KKKSPGEYVNIEF as substrate at 40 mins in presence of [gamma-33ATP] by scintillation counting based radiometry assay relative to control
[4] = target: Death-associated protein kinase 1 (Homo sapiens) (UniProt P53355); experiment: Inhibition of recombinant human DAPK1 (1 to 296 residues) assessed as residual activity at 1 uM KKLNRTLSFAEPG as substrate incubated 40 mins in presence of [gamma-33ATP] by scintillation counting based radiometry assay relative to control
[5] = target: DNA-dependent protein kinase catalytic subunit (Homo sapiens) (UniProt P78527); experiment: Inhibition of recombinant full-length human DNA-PK at 1 uM assessed as residual activity at 1 uM using GST-cMyc-p53 as substrate measured after 40 mins by fluorescence assay
[6] = tested on: Glycogen synthase kinase-3 alpha (Homo sapiens), P49840 [UNDEFINED MUTATION]; experiment: Inhibition of human GSK-3alpha S449A mutant (2 to end residues) assessed as residual activity at 1 uM using phospho GS2 peptide as substrate after 40 mins by [gamma-33ATP] radiometric assay
[7] = target: T1, cGMP-dependent protein kinase 1 (Homo sapiens) (UniProt Q13976); experiment: Inhibition of recombinant full-length human PKG1alpha assessed as residual activity at 1 uM using RRRLSFAEPG as substrate measured after 40 mins in presence of [gamma33P]ATP by scintillation counting method relative to control
T1 sequence (whole entry): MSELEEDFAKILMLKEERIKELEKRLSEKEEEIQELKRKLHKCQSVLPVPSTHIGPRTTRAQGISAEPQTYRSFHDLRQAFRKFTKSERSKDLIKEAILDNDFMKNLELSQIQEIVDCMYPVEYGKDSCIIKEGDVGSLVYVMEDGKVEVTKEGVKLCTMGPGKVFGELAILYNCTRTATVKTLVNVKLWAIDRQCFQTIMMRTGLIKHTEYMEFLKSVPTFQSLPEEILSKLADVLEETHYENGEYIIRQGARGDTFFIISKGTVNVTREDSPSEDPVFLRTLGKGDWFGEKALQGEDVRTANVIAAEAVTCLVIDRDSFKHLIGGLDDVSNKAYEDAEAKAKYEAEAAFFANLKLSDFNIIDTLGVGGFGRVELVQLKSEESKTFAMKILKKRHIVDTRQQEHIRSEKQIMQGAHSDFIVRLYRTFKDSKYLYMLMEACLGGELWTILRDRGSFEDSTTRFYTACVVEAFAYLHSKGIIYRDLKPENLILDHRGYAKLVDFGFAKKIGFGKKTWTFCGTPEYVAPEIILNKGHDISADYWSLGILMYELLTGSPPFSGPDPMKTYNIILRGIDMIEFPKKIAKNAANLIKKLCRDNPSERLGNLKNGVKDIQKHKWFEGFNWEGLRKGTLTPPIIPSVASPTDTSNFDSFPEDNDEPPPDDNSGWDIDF

[8] = target: cAMP-dependent protein kinase catalytic subunit PRKX (Homo sapiens) (UniProt P51817); experiment: Inhibition of recombinant human full length PrKX assessed as residual activity at 1 uM using RRRLSFAEPG as substrate measured after 40 mins in presence of [gamma33P]ATP by scintillation counting method relative to control
[9] = target: LIM domain kinase 2 (Homo sapiens) (UniProt P53671); experiment: Inhibition of recombinant human LIMK2 assessed as residual activity after 1 uM by radiometry assay relative to control
[10] = tested on: Casein kinase I isoform gamma-3 (Homo sapiens), Q9Y6M4 [UNDEFINED MUTATION]; experiment: Inhibition of recombinant human CK1gamma3 K91E/R174G/E302D mutant (1 to 330 residues) assessed as residual activity at 1 uM using KRRRALS(p)VASLPGL as substrate incubated for 40 mins in presence of [gamma-33ATP] by scintillation counting based radiometry assay relative to control
[11] = target: [Pyruvate dehydrogenase (acetyl-transferring)] kinase isozyme 4, mitochondrial (Homo sapiens) (UniProt Q16654); experiment: Inhibition of recombinant human full length PDHK4 assessed as residual activity at 1 uM using KKKYHGHSMSDPGVSYRT as substrate measured after 40 mins in presence of [gamma33P]ATP by scintillation counting method relative to control
[12] = target: Serine/threonine-protein kinase ICK (Homo sapiens) (UniProt Q9UPZ9); experiment: Inhibition of human ICK (1 to 312 residues) assessed as residual activity at 1 uM using RRRFRPASPLRGPPK as substrate after 40 mins by [gamma-33ATP] radiometric assay relative to control
[13] = tested on: Mast/stem cell growth factor receptor Kit (Homo sapiens), P10721 [V654A]; experiment: Inhibition of recombinant human C-Kit V654A mutant (544 to end residues) assessed as residual activity at 1 uM poly(Glu, Tyr) 4:1 as substrate incubated 40 mins in presence of [gamma-33ATP] by scintillation counting based radiometry assay relative to control
[14] = target: Cyclin-dependent kinase-like 2 (Homo sapiens) (UniProt Q92772); experiment: Inhibition of recombinant full length human CDKL2 assessed as residual activity at 1 uM in presence of [gamma-33ATP] by scintillation counting based radiometry assay relative to control
[15] = target: Casein kinase II subunit alpha (Homo sapiens) (UniProt P68400); experiment: Inhibition of recombinant full length human CK2alpha1 assessed as residual activity at 1 uM using RRRDDDSDDD as substrate incubated 40 mins in presence of [gamma-33ATP] by scintillation counting based radiometry assay relative to control
Homo sapiens = organism: Homo sapiens; experiment: Inhibition of recombinant human EphB2 A848S/K918E mutant (560 to end residues) assessed as residual activity at 1 uM using poly(Glu, Tyr) 4:1 as substrate at 40 mins in presence of [gamma-33ATP] by scintillation counting based radiometry assay relative to control
[16] = target: Macrophage colony-stimulating factor 1 receptor (Homo sapiens) (UniProt P07333); experiment: Inhibition of recombinant human FMS (538 to end residues) assessed as residual activity at 1 uM using EEEEYEEEEEEYYIIEEEEEEYEEEEEEYYEEEEEEKKKK as substrate at 40 mins in presence of [gamma-33ATP] by scintillation counting based radiometry assay relative to control

Chain of Serine/threonine-protein kinase B-raf (Homo sapiens) (P15056 whole entry): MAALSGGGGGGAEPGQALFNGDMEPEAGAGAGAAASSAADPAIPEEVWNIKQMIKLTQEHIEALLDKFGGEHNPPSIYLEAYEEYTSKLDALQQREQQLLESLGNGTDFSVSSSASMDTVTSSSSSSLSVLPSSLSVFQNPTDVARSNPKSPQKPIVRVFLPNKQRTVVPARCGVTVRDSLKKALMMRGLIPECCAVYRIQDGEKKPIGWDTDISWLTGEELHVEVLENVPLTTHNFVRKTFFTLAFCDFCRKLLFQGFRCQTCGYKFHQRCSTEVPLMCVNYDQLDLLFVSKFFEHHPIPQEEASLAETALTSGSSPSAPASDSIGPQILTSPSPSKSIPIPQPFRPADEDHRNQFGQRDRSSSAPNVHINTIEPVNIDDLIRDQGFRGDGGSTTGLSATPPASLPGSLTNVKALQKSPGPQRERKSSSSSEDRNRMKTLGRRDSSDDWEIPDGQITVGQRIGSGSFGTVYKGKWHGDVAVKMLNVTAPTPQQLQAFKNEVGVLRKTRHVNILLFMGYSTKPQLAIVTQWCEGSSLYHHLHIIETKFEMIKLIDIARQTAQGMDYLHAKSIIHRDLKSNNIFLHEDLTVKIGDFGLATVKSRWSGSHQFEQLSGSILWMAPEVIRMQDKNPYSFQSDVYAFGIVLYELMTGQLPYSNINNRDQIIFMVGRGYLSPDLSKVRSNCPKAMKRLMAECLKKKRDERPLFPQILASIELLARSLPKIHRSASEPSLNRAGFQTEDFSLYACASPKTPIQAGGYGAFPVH
Chain of Glycogen synthase kinase-3 alpha (Homo sapiens), P49840 [UNDEFINED MUTATION] (P49840 whole entry, looked up, stated change not applied): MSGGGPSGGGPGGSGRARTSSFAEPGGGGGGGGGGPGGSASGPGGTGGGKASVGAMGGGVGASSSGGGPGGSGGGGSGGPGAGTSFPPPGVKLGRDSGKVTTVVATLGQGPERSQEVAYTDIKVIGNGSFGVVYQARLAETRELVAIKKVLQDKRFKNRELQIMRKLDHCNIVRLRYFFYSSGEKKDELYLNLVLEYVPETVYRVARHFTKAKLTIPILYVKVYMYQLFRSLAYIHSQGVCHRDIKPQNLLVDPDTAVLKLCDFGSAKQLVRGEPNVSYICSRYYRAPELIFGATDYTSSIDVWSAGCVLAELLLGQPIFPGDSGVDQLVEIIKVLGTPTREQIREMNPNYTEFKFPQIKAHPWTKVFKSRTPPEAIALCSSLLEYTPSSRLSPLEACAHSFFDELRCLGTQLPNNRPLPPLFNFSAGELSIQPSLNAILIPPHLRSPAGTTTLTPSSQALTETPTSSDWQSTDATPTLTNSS
Chain of Fibroblast growth factor receptor 1 (Homo sapiens) (P11362 22-822 limits assumed): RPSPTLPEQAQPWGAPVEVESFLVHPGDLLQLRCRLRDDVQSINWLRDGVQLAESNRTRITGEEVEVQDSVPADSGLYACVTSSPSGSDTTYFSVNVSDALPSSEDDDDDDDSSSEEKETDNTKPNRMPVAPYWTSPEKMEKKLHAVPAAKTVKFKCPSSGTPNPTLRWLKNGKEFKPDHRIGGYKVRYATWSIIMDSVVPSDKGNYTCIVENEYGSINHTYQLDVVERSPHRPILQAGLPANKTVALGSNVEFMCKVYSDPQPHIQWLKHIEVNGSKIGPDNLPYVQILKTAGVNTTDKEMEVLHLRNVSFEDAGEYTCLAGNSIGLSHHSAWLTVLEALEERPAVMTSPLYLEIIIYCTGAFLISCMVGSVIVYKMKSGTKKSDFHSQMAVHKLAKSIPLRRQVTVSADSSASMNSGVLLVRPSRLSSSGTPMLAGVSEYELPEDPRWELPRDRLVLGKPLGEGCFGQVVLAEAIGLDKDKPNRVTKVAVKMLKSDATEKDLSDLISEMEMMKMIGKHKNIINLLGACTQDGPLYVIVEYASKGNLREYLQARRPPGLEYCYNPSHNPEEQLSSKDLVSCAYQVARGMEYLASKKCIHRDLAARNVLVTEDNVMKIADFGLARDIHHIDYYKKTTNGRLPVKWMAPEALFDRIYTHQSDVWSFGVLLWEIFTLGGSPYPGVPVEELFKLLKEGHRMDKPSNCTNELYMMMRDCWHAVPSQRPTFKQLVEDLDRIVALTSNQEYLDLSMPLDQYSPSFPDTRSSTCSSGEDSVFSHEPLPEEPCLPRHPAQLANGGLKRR
Chain of cAMP-dependent protein kinase catalytic subunit PRKX (Homo sapiens) (P51817 whole entry, the tested form may be a part): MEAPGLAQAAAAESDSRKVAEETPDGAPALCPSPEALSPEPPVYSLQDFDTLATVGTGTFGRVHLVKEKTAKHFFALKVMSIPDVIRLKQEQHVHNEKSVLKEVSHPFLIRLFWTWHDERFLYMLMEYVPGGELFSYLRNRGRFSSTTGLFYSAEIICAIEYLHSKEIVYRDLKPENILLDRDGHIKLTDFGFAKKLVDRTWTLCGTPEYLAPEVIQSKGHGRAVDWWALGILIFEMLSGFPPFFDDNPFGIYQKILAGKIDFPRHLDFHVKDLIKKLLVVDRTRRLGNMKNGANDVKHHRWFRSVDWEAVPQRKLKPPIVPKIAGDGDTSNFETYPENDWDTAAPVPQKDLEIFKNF
Chain of Cyclin-dependent kinase-like 2 (Homo sapiens) (Q92772 whole entry): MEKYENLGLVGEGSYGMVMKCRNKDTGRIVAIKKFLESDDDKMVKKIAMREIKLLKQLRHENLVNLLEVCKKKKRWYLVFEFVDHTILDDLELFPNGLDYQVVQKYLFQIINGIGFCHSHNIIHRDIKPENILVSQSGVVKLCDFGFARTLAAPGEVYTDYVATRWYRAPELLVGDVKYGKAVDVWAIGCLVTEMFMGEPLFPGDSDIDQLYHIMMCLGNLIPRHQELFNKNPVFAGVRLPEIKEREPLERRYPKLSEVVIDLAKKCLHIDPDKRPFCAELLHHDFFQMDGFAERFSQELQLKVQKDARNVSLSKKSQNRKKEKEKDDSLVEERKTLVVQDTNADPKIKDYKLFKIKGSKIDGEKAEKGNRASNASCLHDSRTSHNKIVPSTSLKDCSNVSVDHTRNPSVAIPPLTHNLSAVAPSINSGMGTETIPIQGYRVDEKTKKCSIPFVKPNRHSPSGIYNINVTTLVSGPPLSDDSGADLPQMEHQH
Chain of Mast/stem cell growth factor receptor Kit (Homo sapiens), P10721 [V654A] (P10721 whole entry V654A): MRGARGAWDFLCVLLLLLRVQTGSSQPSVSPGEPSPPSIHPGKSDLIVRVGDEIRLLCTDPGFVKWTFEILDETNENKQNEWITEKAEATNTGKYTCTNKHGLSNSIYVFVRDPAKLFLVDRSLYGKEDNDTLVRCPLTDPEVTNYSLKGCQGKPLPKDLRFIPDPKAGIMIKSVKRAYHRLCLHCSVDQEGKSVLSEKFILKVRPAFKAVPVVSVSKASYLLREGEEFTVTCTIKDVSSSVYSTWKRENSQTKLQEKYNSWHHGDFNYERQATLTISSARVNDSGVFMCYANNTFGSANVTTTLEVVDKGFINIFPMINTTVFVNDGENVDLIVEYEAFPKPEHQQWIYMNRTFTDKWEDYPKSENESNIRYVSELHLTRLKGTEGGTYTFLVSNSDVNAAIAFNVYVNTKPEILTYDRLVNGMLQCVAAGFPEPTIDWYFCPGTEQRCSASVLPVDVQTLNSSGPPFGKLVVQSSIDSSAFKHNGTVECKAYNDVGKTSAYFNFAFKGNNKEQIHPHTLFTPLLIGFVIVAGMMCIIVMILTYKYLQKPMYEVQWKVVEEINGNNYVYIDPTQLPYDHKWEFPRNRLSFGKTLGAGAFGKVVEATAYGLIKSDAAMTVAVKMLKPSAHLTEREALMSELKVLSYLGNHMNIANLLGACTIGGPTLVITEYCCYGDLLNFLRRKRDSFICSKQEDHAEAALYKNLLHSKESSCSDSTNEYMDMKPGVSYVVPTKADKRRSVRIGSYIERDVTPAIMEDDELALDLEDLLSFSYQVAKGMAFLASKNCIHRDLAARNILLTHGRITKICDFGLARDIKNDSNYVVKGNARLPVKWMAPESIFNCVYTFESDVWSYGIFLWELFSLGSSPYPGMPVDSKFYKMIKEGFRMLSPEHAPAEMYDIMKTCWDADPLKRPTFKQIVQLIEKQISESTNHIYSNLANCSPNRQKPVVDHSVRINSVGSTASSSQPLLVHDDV
Chain of Casein kinase II subunit alpha (Homo sapiens) (P68400 whole entry, looked up): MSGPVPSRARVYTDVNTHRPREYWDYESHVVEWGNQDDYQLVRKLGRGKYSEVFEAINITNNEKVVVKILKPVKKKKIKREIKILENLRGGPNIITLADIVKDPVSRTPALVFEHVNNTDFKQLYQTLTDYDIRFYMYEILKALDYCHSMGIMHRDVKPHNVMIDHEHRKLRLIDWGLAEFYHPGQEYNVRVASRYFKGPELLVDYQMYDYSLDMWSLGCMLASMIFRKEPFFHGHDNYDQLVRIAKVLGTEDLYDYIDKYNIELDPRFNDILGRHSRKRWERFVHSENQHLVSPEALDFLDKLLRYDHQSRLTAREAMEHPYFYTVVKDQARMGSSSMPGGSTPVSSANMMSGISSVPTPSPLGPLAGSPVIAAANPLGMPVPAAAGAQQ
Chain of Casein kinase I isoform gamma-3 (Homo sapiens), Q9Y6M4 [UNDEFINED MUTATION] (Q9Y6M4 whole entry, looked up, stated change not applied, the tested form may be a part, canonical isoform): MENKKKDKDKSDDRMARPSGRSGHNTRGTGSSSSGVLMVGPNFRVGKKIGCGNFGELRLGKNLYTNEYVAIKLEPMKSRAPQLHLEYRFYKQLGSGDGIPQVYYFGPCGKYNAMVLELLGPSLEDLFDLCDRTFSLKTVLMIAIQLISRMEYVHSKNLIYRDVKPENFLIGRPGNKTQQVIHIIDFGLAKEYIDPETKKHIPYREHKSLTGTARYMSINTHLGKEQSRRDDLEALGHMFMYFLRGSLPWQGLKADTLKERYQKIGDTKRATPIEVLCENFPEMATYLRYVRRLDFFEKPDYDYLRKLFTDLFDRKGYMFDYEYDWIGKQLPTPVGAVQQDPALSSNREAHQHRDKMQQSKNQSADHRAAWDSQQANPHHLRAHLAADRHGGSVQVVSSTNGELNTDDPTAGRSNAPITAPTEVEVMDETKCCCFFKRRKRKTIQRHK

Structure (SMILES) | Activity [1] [%] | Activity [2] [%] | Activity [3] [%] | Activity [4] [%] | Activity [5] [%] | Activity [6] [%] | Activity [7] [%] | Activity [8] [%] | Activity [9] [%] | Activity [10] [%] | Activity [11] [%] | Activity [12] [%] | Activity [13] [%] | Activity [14] [%] | Activity [15] [%] | Activity (Homo sapiens) [%] | Activity [16] [%]
C=CCOC(=O)c1cc(-c2ccc(/C=C3/NC(=S)NC3=O)o2)ccc1Cl | 90 | 90 | 113 | 92 | 107 | 10 | 93 | 107 | 95 | 121 | 100 | 28 | 95 | 68 | 59 | 140 | 117
N=C1NC(=O)/C(=C\c2ccc(-c3cccc([N+](=O)[O-])c3)o2)S1 | 97 | 103 | 99 | 84 | 93 | 8 | 71 | 96 | 101 | 97 | 103 | 18 | 108 | 74 | 57 | 96 | 106

Source: ChEMBL document CHEMBL4334438, “Discovery of novel glycogen synthase kinase-3α inhibitors: Structure-based virtual screening, preliminary SAR and biological evaluation for treatment of acute myeloid leukemia” (Eur J Med Chem, 2019)
